Target: T1, ERα (Mus musculus, UniProt P19785)
T1 construct: ERα in LAMT is almost exclusively expressed in fibroblasts; endogenous in cells; host or cells: primary LAMT fibrosis-associated fibroblasts (passage 0) from 4-week-old Arom^hum (FVB/N background) male mice
T1 sequence (P19785 1-599): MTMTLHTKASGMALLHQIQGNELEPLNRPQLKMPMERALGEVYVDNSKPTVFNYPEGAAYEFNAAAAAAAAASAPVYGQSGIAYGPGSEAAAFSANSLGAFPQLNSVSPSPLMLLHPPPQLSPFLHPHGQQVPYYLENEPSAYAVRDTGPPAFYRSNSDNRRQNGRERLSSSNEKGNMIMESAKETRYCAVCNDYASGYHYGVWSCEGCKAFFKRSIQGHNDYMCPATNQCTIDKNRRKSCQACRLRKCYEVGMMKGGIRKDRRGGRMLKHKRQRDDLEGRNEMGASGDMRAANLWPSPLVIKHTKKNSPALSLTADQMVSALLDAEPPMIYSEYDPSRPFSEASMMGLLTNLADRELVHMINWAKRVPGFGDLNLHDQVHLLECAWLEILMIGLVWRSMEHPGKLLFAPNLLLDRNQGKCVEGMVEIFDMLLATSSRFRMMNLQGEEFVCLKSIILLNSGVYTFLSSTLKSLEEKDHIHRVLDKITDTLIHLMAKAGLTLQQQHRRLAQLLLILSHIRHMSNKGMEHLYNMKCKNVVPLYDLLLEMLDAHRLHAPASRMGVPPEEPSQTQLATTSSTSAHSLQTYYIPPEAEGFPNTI
Test: ERα ChIP-seq, histone ChIP-seq and RNA-seq in LAMT FAFs treated with E2 or fulvestrant (planned)
Assay type: cell-based
Conditions: expected result (Aim 1); fulvestrant 10^−7 M, 24 h
Source text: Early herniation in Arom^hum mice usually become visible around 4 weeks of age (FIG. 5). Thus, we will isolate LAMT transformed FAFs at 4 weeks of age. We routinely culture primary fibroblast cells from LAMT of both WT and Arom^hum mice (FIGS. 6-9). The quantity of FAFs (>10^7 cells/Arom^hum mouse) is sufficient for performing the proposed experiments. Previously, we successfully used two antibodies for ERα ChIP-seq or other genome-wide ChIP approaches^84, 85. We will perform optimization studies (ChIP-western and conventional ChIP) with both antibodies in primary muscle fibroblasts and use the most suitable antibody for ChIP-seq^84. […] Library quality will be assessed using the Agilent 2100 Bioanalyzer. Sequencing will be performed at the Next-Generation Sequencing Core at Northwestern to obtain 30 million single-end 75-bp reads per sample. […]
Experiment 1b2: We will perform RNA-seq at 40 million reads per sample on the 12 LAMT FAF samples treated for 24 h with vehicle, E2 (10^−8M), or fulvestrant (10^-7 M) (n=4 mice/group). […] The RNA-seq data will be evaluated using pathway analysis and gene enrichment strategies with respect to the differentially expressed (DE) transcripts/genes induced by E2 and reversed by fulvestrant.
Bioinformatics analysis for ChIP-seq, RNA-seq, and their integration. […] The differential binding (DB) sites will be detected using csaw^89. […]

## C[C@]12CC[C@@H]3c4ccc(O)cc4C[C@@H](CCCCCCCCC[S+]([O-])CCCC(F)(F)C(F)(F)F)[C@H]3[C@@H]1CC[C@@H]2O (stereo partly shown) [fulvestrant]
  E2-induced ERα binding, histone modification and gene expression profiles in LAMT FAFs: will block or partially reverse E2-induced ERα binding and histone modification, and alter gene expression profiles

From patent US20240238310A1, “MODULATION OF SEX STEROID HORMONE PRODUCTION AND ACTIVITY FOR TREATING AND PREVENTING HERNIAS” (Northwestern University, priority 2020, published 2024)
